Reference: US11261194B2, “Production method of diol” (MITSUBISHI GAS CHEMICAL COMPANY, INC., priority 2017, dated 2022)
Values after ≈ are worked out from the molar mass of the structure shown.

Assay: solubility in water at 25° C.
Format: physicochemical

## O=C1CCC(=O)CC1 [1,4-cyclohexanedione]
  solubility: 750 mg/mL (≈ 6690 mM)

## CCC1(CO)COC2(CCC3(CC2)OCC(CC)(CO)CO3)OC1 (stereo not shown) [compound A]
  solubility in water at 25° C.: ≤ 0.5 mg/mL

## CC1(CO)COC2(CCC3(CC2)OCC(C)(CO)CO3)OC1 (stereo not shown) [compound B]
  solubility in water at 25° C.: ≤ 0.5 mg/mL

## CC(CO)(CO)CO [trimethylolethane]
  solubility in water at 25° C.: ≥ 100 mg/mL
